In patent US20090118174A1, “Novel peptides and methods for the treatment of inflammatory disorders” (Auckland Uniservices Limited, priority 2005, published 2009):
Read-outs that look alike come from different tables or passages of the source. No end group written: not given here.

Key:
[1] = test system: H9 cells
Protocol: (B) Peptide taken up into cells was detected by staining fixed and permeabilized cytospins with FITC-streptavidin. Representative images of β2cyt peptides taken up into H9 cells were visualized by fluorescence microscopy. Left-hand panels show nuclei stained with DAPI.
Biotinylated peptides were added to the cells in serum-free RPMI 1640 medium for 30 min to 2 h at 37° C. or room temperature. The cells were washed twice with PBS, resuspended into 1% FCS in PBS, and cytocentrifuged onto glass slides. Cytospin smears were fixed with 4% paraformaldehyde in PBS for 15 min at room temperature (RT), washed twice with PBS and permeabilized in PBS containing 0.2% Triton X-100. Biotinylated peptides were detected by incubating the cytospins with streptavidin-FITC (Sigma, Mo.) for 45 min at RT, and visualized using either a Leica TCS 4D confocal laser microscope, or Nikon E600 fluorescence microscope.

[2] = test system: αLβ2-mediated adhesion of Mn++-activated H9 cells to ICAM-1; assay: Cell adhesion assay: adhesion of Mn2+-activated H9 cells to ICAM-1-Fc; assay type: cell-based, human; conditions: for inhibition of cell adhesion to ICAM-1 (in words): Mn++-activated H9 cells, cell-permeable fusion peptide; for blocking of adhesion (in words): at 100 μM
Protocol: The human T lymphoma cell line H9, was purchased from the American Type Culture Collection, Rockville, Md. It was cultured at 37° C. in 1640 medium supplemented with 50 U/ml penicillin, 50 μg/ml streptomycin, 200 μg/ml L-glutamine, 10% (v/v) FCS and 0.05 mM β-mercaptoethanol. All synthetic peptides were custom made by Mimotopes Pty Ltd., Victoria, Australia. The β2cyt peptides were N-terminally fused during synthesis to biotinylated penetratin (RQIKIWFQNRRMKWKK—Seq ID No. 22) or to a biotinylated D-isomeric form of an R9 polymer (Seq ID No. 32) to render them cell-permeable.
The soluble ICAM-1-Fc chimera was produced using the glutamine synthetase gene amplification system. The extracellular portions of human ICAM-1 fused to the Fc domain of human IgG1 were expressed from the pEE14 vector (kindly provided by Dr Chris Bebbington, Celltech Ltd, UK) in CHO K1 cells as described previously (18).
Lab-Tek 16-well glass slides (Nunc) or flat-bottom 96-well plates (Nunc Maxisorp) were coated overnight at 4° C. with purified ICAM-1-Fc at 10 μg/well in 100 μl of 0.1 M carbonate buffer (pH 9.5). After washing plates were blocked with 100% heat-inactivated FCS, and washed with Hanks balanced salt solution (HBSS) containing 10 mM Hepes, 2 mM Ca^2+ and 2 mM Mn^2+. H9 cells were either left unlabeled or labeled with the fluorescent dye chloromethyl fluorescein diacetate (CMFDA; Molecular Probes, Oregon). For peptide inhibition studies, H9 cells were preincubated with peptide in serum-free medium for 30 min at 37° C. and activated by suspension in an Mn^2+-containing buffer (HBSS: 10 mM Hepes containing 2 mM Ca^2+, 2 mM Mn^2+, and 2% FCS). Human IgG1 Ab (10 μg/ml; Sigma) was added to prevent nonspecific capture of cells to the Fc portion of […]. Cells were checked for viability by trypan blue exclusion, added to wells (10^6cells/well), and incubated for 30 min at 37° C. in a humidified atmosphere of 5% CO2. Non-adherent cells were removed by inverse centrifugation of the plates at 70×g for 5 min followed by gentle pipette washing. The number of unlabeled adherent cells was determined by counting the number of adherent cells in four independent fields at 100× magnification under an inverted microscope. The fluorescence of CMFDA-labeled adherent cells was measured using a VICTOR1420 multilabel counter (Wallac). Representative data are reported as mean±SD of two independent experiments performed in duplicate.

[3] = at 25 μM, Mn++-activated H9 cells to ICAM-1, fused to r9
[4] = at 50 μM, Mn++-activated H9 cells to ICAM-1, fused to r9
[5] = at 6 μM, H9 cells to ICAM-1, r9 fusion

Substance	inhibition of cell adhesion to ICAM-1 (in words) [2]	inhibition of adhesion [2, 3]	inhibition of adhesion [2, 4]	inhibition of adhesion [2, 5]	blocking of adhesion (in words) ([2]; H9 cells to ICAM-1, r9 fusion)	other results
KALIHLSDLREY						uptake of penetratin fusion peptide into cells [1]: readily taken up
NPLFKSATTT (not fully specified (N-terminus); also: biotinylated r9 carrier, attachment not given here) [β2cyt peptide fused to r9 (biotinylated D-isomeric nine-arginine polymer) to render it cell-permeable]	active	~50%	~80%			
VMNPKFAES (not fully specified (N-terminus); also: biotinylated r9 carrier, attachment not given here) [β2cyt peptide fused to r9 (biotinylated D-isomeric nine-arginine polymer) to render it cell-permeable]	active	~50%	~80%			
YRRFEKEKLKSQWNND						uptake of penetratin fusion peptide into cells ([1]; human cell line H9, biotinylated peptide detected with streptavidin-FITC): readily taken up
r9-NPKF: core talin-binding motif of β2cyt synthesized as fusion with the r9 carrier peptide (not fully specified (N-terminus); printed as r9-NPKF)				82%	almost completely blocked adhesion	
r9-NPLFKS: β2cyt hexamer synthesized as fusion with the r9 carrier peptide (not fully specified (N-terminus); printed as r9-NPLFKS)				24%	almost completely blocked adhesion	
